In US10801050B2, “Microorganism modified for the assimilation of levulinic acid” (priority 2015, dated 2020):

Test: In vitro validation of enzymatic activities: LC-MS/MS detection of levulinyl-CoA after incubation of purified proteins with substrates
Format: biochemical, Ralstonia eutropha
Settings: purified proteins incubated with their respective substrates; reverse phase UPLC, negative ion MS/MS
Text: To validate the activity of the candidates identified in Example 2 above with regard to reactions A1, A2 and B, their corresponding genes were cloned into the expression plasmid pPAL7 (Biorad®). In the case of QOKBZ9_CUPNH and Q0KC00_CUPNH, the corresponding genes were cloned in operon into the pPAL7. The resulting plasmids were transformed into E. coli BL21(DE3) strain.
The resulting strains were cultivated as described in patent application WO 2010/076324, incorporated herein by reference. Cells were collected by centrifugation and resuspended in potassium phosphate buffer 100 mM pH 7.6. Proteins were extracted by sonication and crude extracts were clarified by centrifugation. Recombinant protein purification was carried out using Biorad® PROfinity EXact cartridges according to the manufacturer's instructions. […]
Levulinyl-CoA was detected by reverse phase UPLC coupled to negative ion MS/MS, by searching for the transition from mass 864 (mass of levulinyl-CoA minus 1) to 408 (ion corresponding to the adenine part according to the protocol described by Zirrolli et al. 1994) as shown on FIG. 3.

Substance: Q0KBZ9_CUPNH/Q0KC00_CUPNH: the 2 subunits of succinyl-CoA:3-ketoacid-coenzyme A transferase (EC 2.8.3.5), candidate for reaction A2
- detection of levulinyl-CoA in the reaction mixture (transition 864 to 408): presence of levulinyl-CoA
